In patent US12692322B2, “KRAS specific antibodies and uses thereof” (Genentech, Inc., priority 2020, dated 2026):

Assays:
[1] = system: SWII pocket of KRas^G12C-GDP and KRas^WT-GDP; assay: SPR of SWII ligands with SWII-blocked reference, with and without 2H11; type: binding, human
Protocol: Surface plasmon resonance (SPR) experiments with 2H11 anti-KRas antibody. A series S SA (streptavidin) chip was inserted into a Biacore T200 (GE Health Sciences). The instrument was primed into running buffer (50 mM HEPES pH 7.5, 150 mM NaCl, 0.2% (w/v) PEG-3350, 0.1% CM-dextran (w/v), 0.1 mM TCEP, 10 mM MgCl2, 100 nM GDP, and 2% (v/v) DMSO). KRas^G12C was pre-blocked at the 12 position with covalent binding KRas^G12C alkylator was captured to yield 2000-2500 response units (RU) on flow channel 1 (FC1) and FC3 to serve as the reference for KRas^WT and KRas^G12C and allow affinity measurement exclusively at the Switch II (SWII) pocket. KRas^WT or KRas^G12C was captured on FC2 and FC4 within 100 RU of the reference channel capture level and data was collected in FC 2-1, FC 4-3 mode. […] Analyte samples were tested […] in 2-fold dose response with 20-30 second contact time and 30 second dissociation. Data was analyzed in with a 1:1 affinity model in Biacore S200 Evaluation Software 1.0 and figures were made in Scrubber 2 (Biologic Software) (FIG. 5A and FIG. 5B).

[2] = target: T1, alkylated KRas^G12C in H1171 KRas^G12C cells (Homo sapiens, UniProt P01116, G12C); assay: Immunofluorescence and high content imaging; type: cell-based; details: treatment for 16 hours
T1 construct: Immunoprecipitation of alkylated and un-alkylated KRas^G12C in H1171 KRAS^G12C mutant cancer cells; endogenous in cells; host or cells: H1171 (HCC1171) KRAS G12C mutant cancer cells
Protocol: Immunofluorescence and High Content Imaging Cells (20000 to 40000 cells per well depending on the cell line) were seeded into Poly-L-Lysine Coated 96-well plates (Cell Carrier Ultra; Perkin Elmer) and supplemented with complete medium (RPMI with 2% L-Glutamine and 10% FBS). The next day, cells were treated with KRas^G12C inhibitors at indicated concentrations and incubated for the indicated length of time. At the end of treatment, cells were washed twice with cold 1×PBS, fixed with 3% paraformaldehyde for 20 minutes at room temperature, washed for 10 minutes with 1×PBS, and the PFA was quenched with 50 mM NH4Cl for 10 minutes at room temperature. Cells were washed again with 1×PBS twice for 5 minutes, then permeabilized with 1× Perm/Wash Buffer (BD, Fisher Scientific) for 20 minutes at room temperature. Cells were then incubated with primary antibody diluted in Perm/Wash buffer at indicated concentration for 2 hours at room temperature. Cells were then washed three times with Perm/Wash buffer for 10 minutes each, and the incubated with conjugated fluorescence secondary antibody for 20 to 60 minutes (Alexa488 anti-human and Alexa647 anti-rabbit or anti-rat at 1:500 from Jackson ImmunoResearch Laboratories Inc.) 100 ml of 300 nM DAPI was added to each well for 15 minutes and then cells were washed twice with Perm/Wash buffer, and once with 1×PBS prior to imaging. […]

C=CC(=O)N1CCN(c2ncnc3c(F)c(-c4c(O)cccc4F)c(Cl)cc23)CC1 (atropisomer, axis not shown) [ARS-1620, (R)-1-(4-(6-chloro-8-fluoro-7-(2-fluoro-6-hydroxyphenyl)quinazolin-4-yl)piperazin-1-yl)prop-2-en-1-one]
affinity of SWII covalent molecules in the presence versus absence of 2H11 anti-KRas antibody [1]: greatly enhanced
alkylation of KRas^G12C by IF and immunoblot analysis [2]: almost complete alkylation

C=CC(=O)N1CCN(c2ncnc3cc(-c4c(C)ccc5[nH]ncc45)c(Cl)cc23)CC1 (atropisomer, axis not shown) [GNE-1952, (R)-1-(4-(6-chloro-7-(5-methyl-TH-indazol-4-yl)quinazolin-4-yl)piperazin-1-yl)prop-2-en-1-one]
affinity of SWII covalent molecules in the presence versus absence of 2H11 anti-KRas antibody [1]: greatly enhanced

C=CC(=O)N1CC(N2CCN(C(=O)CNc3cc(C4(C)CC4)c(Cl)cc3O)CC2)C1 [ARS-853, 1-(3-(4-((4-chloro-2-hydroxy-5-(1-methylcyclopropyl)phenyl)glycyl)piperazin-1-yl)azetidin-1-yl)prop-2-en-1-one]
affinity of SWII covalent molecules in the presence versus absence of 2H11 anti-KRas antibody [1]: greatly enhanced
